Experimental data from US20040063699A1, “Gpr14 antagonist” (priority 2000, published 2004).
Counter-ions that a name gives are not always drawn.

Target: T1, human GPR14 (Homo sapiens, UniProt Q9UKP6)
T1 construct: expressed in transfected cells
T1 sequence (Q9UKP6 1-389): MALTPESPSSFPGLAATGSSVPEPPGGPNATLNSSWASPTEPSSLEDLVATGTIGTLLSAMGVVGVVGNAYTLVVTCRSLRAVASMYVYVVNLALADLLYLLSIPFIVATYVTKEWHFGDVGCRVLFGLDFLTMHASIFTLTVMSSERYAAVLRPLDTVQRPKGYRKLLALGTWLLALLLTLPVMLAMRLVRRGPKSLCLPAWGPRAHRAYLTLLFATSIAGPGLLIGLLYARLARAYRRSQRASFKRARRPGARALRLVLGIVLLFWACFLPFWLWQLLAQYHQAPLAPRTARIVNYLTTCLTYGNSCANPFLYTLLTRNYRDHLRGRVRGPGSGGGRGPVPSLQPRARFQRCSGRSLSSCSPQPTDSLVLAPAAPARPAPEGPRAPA
Assay: Inhibition of binding of [125I]-labeled human urotensin II to human GPR14-expressing CHO cell membrane fraction
Settings: 25° C., 3 hours, read-out: Inhibitory concentration (concentration at which the compound showed 50% inhibition of human GPR14 binding activity)
Method: To 1×10^8 CHO/GPR14 cells were added 10 ml of homogenate buffer (10 mM NaHCO3, 5 mM EDTA, 0.5 mM PMSF, 1 μg/ml pepstatin, 4 μg/ml E64, 20 μg/ml leupeptin), and disrupted using Polytron (12,000 rpm, 1 minute). Cell debris solution was centrifuged at 1,000 g for 15 minutes to obtain a supernatant. The supernatant was then […] (in Beckman type 30 rotor, 30,000 rpm, 1 hour), and the resultant precipitant was collected as human GPR14-expressing CHO cell fraction.
Isotope-labeled human urotensin II to be used in experiments for testing inhibition of binding was prepared as described below. 5 μg of human urotensin II (available from Peptide Institute, Inc.) was dissolved in 25 μl of 0.4M sodium acetate (pH 5.6). To the solution was added 200 ng of lactoperoxidase (Wako Pure Chemical Industries, Ltd.) followed by 1 mCi [^125I]-sodium iodide (Amersham Pharmacia Biotech) and 200 ng of hydrogen peroxide (10 μl). The solution was left to stand at room temperature for 10 minutes, another 200 ng of hydrogen peroxide (10 μl) was added thereto and then the solution was left to stand for 10 minutes. The mixture was then purified by HPLC using TSKgel ODS-80Ts column (4.6 mm×25 cm, Toso Co., Ltd.) to obtain [^125I]-labeled human urotensin II.
Experiment for Testing the Ability of Test compound to Inhibit Binding of Urotensin II to GPR14 Using Human GPR14-Expressing Cell Fraction and Isotope-Labeled Urotensin II
Human GPR14-expressing CHO cell fraction was diluted in a membrane diluting buffer (20 mM phosphate buffer (pH7.3), 150 mM NaCl, 5 mM MgCl2, […], 0.05% CHAPS, 0.5 mM PMSF, 0.1 μg/ml Pepstatin, 20 μg/ml Leupeptin, 4 μg/ml E-64) to prepare a solution of cell membrane fraction (protein concentration: 3 μg/ml) for assay. […] Next, the filter was washed three times with membrane diluting buffer (0.2 ml), added with 20 μl of Microscinti 20 (Packard), and determined for radioactivity in Topcount (Packard). Specific-binding is calculated by subtracting non-specific binding from the total binding. […]

| Compound | IC50 [nM] |
| --- | --- |
| O=C(NCCN1CCN(C(c2ccc(F)cc2)c2ccc(F)cc2)CC1)c1ccc2c(c1)CCNCC2 [Example 84, N-(2-{4-[bis(4-fluorophenyl)methyl]piperazin-1-yl}ethyl)-2,3,4,5-tetrahydro-1H-3-benzazepine-7-carboxamide trihydrochloride] | 1.7 |
| O=C(CCCN1CCN(C(c2ccc(F)cc2)c2ccc(F)cc2)CC1)c1ccc2c(c1)CCNCC2 [Example 6, 4-{4-[bis(4-fluorophenyl)methyl]-1-piperazinyl}-1-(2,3,4,5-tetrahydro-1H-3-benzazepin-7-yl)-1-butanone trihydrochloride] | 3.2 |
| O=S(=O)(NCCN1CCN(Cc2ccccc2)CC1)c1ccc2c(c1)CCNCC2 [Example 75, N-[2-(4-benzyl-1-piperazinyl)ethyl]-2,3,4,5-tetrahydro-1H-3-benzazepine-7-sulfonamide trihydrochloride] | 8.6 |
